Tested on: HEK-293T cells
Assay: MTT assay, light-dependent cell proliferation
Assay type: cell-based
Details: 72 h

COc1ccc(N=Nc2cc(OC)c(OC)c(OC)c2)cc1O [I.1, 2-methoxy-5-((3,4,5-trimethoxyphenyl)diazenyl)phenol]
fold growth relative to cosolvent control (MTT) (100 nM, 390 nm, 0.35 s every 2 min): 1.31
fold growth relative to cosolvent control (MTT) (100 nM, 390 nm, 0.35s then 490 nm, 3 s (rescue) every 2 min): 1.26
fold growth relative to cosolvent control (MTT) (100 nM, 410 nm, 0.35 s every 2 min): 1.19
fold growth relative to cosolvent control (MTT) (100 nM, 410 nm, 0.35 s then 505 nm, 3 s (rescue) every 2 min): 1.29
fold growth relative to cosolvent control (MTT) (100 nM, 475 nm, 3 s every 2 min): 1.11
fold growth relative to cosolvent control (MTT) (100 nM, 490 nm, 3 s every 2 min): 1.10
fold growth relative to cosolvent control (MTT) (100 nM, 505 nm, 3 s every 2 min): 1.22
fold growth relative to cosolvent control (MTT) (100 nM, 525 nm, 3 s every 2 min): 1.12
fold growth relative to cosolvent control (MTT) (100 nM, Dark): 1.29
fold growth relative to cosolvent control (MTT) (400 nM, 390 nm, 0.35 s every 2 min): 0.67
fold growth relative to cosolvent control (MTT) (400 nM, 390 nm, 0.35s then 490 nm, 3 s (rescue) every 2 min): 0.69
fold growth relative to cosolvent control (MTT) (400 nM, 410 nm, 0.35 s every 2 min): 0.70
fold growth relative to cosolvent control (MTT) (400 nM, 410 nm, 0.35 s then 505 nm, 3 s (rescue) every 2 min): 0.86
fold growth relative to cosolvent control (MTT) (400 nM, 475 nm, 3 s every 2 min): 0.55
fold growth relative to cosolvent control (MTT) (400 nM, 490 nm, 3 s every 2 min): 0.69
fold growth relative to cosolvent control (MTT) (400 nM, 505 nm, 3 s every 2 min): 0.87
fold growth relative to cosolvent control (MTT) (400 nM, 525 nm, 3 s every 2 min): 0.82
fold growth relative to cosolvent control (MTT) (400 nM, Dark): 0.87
fold growth relative to cosolvent control (MTT) (800 nM, 390 nm, 0.35 s every 2 min): 0.38
fold growth relative to cosolvent control (MTT) (800 nM, 390 nm, 0.35s then 490 nm, 3 s (rescue) every 2 min): 0.33
fold growth relative to cosolvent control (MTT) (800 nM, 410 nm, 0.35 s every 2 min): 0.51
fold growth relative to cosolvent control (MTT) (800 nM, 410 nm, 0.35 s then 505 nm, 3 s (rescue) every 2 min): 0.67
fold growth relative to cosolvent control (MTT) (800 nM, 475 nm, 3 s every 2 min): 0.37
fold growth relative to cosolvent control (MTT) (800 nM, 490 nm, 3 s every 2 min): 0.43
fold growth relative to cosolvent control (MTT) (800 nM, 505 nm, 3 s every 2 min): 0.92
fold growth relative to cosolvent control (MTT) (800 nM, 525 nm, 3 s every 2 min): 1.00
fold growth relative to cosolvent control (MTT) (800 nM, Dark): 0.95
fold growth relative to cosolvent control (MTT) (1.5 μM, 390 nm, 0.35 s every 2 min): 0.22
fold growth relative to cosolvent control (MTT) (1.5 μM, 390 nm, 0.35s then 490 nm, 3 s (rescue) every 2 min): 0.18
fold growth relative to cosolvent control (MTT) (1.5 μM, 410 nm, 0.35 s every 2 min): 0.25
fold growth relative to cosolvent control (MTT) (1.5 μM, 410 nm, 0.35 s then 505 nm, 3 s (rescue) every 2 min): 0.25
fold growth relative to cosolvent control (MTT) (1.5 μM, 475 nm, 3 s every 2 min): 0.19
fold growth relative to cosolvent control (MTT) (1.5 μM, 490 nm, 3 s every 2 min): 0.19
fold growth relative to cosolvent control (MTT) (1.5 μM, 505 nm, 3 s every 2 min): 0.42
fold growth relative to cosolvent control (MTT) (1.5 μM, 525 nm, 3 s every 2 min): 0.66
fold growth relative to cosolvent control (MTT) (1.5 μM, Dark): 0.71
fold growth relative to cosolvent control (MTT) (3 μM, 390 nm, 0.35 s every 2 min): 0.17
fold growth relative to cosolvent control (MTT) (3 μM, 390 nm, 0.35s then 490 nm, 3 s (rescue) every 2 min): 0.14
fold growth relative to cosolvent control (MTT) (3 μM, 410 nm, 0.35 s every 2 min): 0.18
fold growth relative to cosolvent control (MTT) (3 μM, 410 nm, 0.35 s then 505 nm, 3 s (rescue) every 2 min): 0.22
fold growth relative to cosolvent control (MTT) (3 μM, 475 nm, 3 s every 2 min): 0.15
fold growth relative to cosolvent control (MTT) (3 μM, 490 nm, 3 s every 2 min): 0.20
fold growth relative to cosolvent control (MTT) (3 μM, 505 nm, 3 s every 2 min): 0.27
fold growth relative to cosolvent control (MTT) (3 μM, 525 nm, 3 s every 2 min): 0.64
fold growth relative to cosolvent control (MTT) (3 μM, Dark): 0.66
fold growth relative to cosolvent control (MTT) (6 μM, 390 nm, 0.35 s every 2 min): 0.29
fold growth relative to cosolvent control (MTT) (6 μM, 390 nm, 0.35s then 490 nm, 3 s (rescue) every 2 min): 0.18
fold growth relative to cosolvent control (MTT) (6 μM, 410 nm, 0.35 s every 2 min): 0.23
fold growth relative to cosolvent control (MTT) (6 μM, 410 nm, 0.35 s then 505 nm, 3 s (rescue) every 2 min): 0.30
fold growth relative to cosolvent control (MTT) (6 μM, 475 nm, 3 s every 2 min): 0.21
fold growth relative to cosolvent control (MTT) (6 μM, 490 nm, 3 s every 2 min): 0.34
fold growth relative to cosolvent control (MTT) (6 μM, 505 nm, 3 s every 2 min): 0.27
fold growth relative to cosolvent control (MTT) (6 μM, 525 nm, 3 s every 2 min): 0.39
fold growth relative to cosolvent control (MTT) (6 μM, Dark): 0.80
fold growth relative to cosolvent control (MTT) (15 μM, 390 nm, 0.35 s every 2 min): 0.28
fold growth relative to cosolvent control (MTT) (15 μM, 390 nm, 0.35s then 490 nm, 3 s (rescue) every 2 min): 0.21
fold growth relative to cosolvent control (MTT) (15 μM, 410 nm, 0.35 s every 2 min): 0.23
fold growth relative to cosolvent control (MTT) (15 μM, 410 nm, 0.35 s then 505 nm, 3 s (rescue) every 2 min): 0.24
fold growth relative to cosolvent control (MTT) (15 μM, 475 nm, 3 s every 2 min): 0.17
fold growth relative to cosolvent control (MTT) (15 μM, 490 nm, 3 s every 2 min): 0.31
fold growth relative to cosolvent control (MTT) (15 μM, 505 nm, 3 s every 2 min): 0.20
fold growth relative to cosolvent control (MTT) (15 μM, 525 nm, 3 s every 2 min): 0.29
fold growth relative to cosolvent control (MTT) (15 μM, Dark): 0.87

— patent publication US20170051149A1, “AZOARYLS AS REVERSIBLY MODULATABLE TUBULIN INHIBITORS” (ECOLE NORMALE SUPERIEURE DE LYON, priority 2014, published 2017)
